Data reported in PubChem BioAssay AID328 (DTP/NCI, 2004).
Values joined by “and” are separate entries in the source; they are usually repeats but may differ in a detail not shown here. Equal values may be shown once. Toxic doses and inconclusive results are not listed.

System: BDF1 mice, P388 leukemia ip, median survival T/C
Experiment: NCI In Vivo Anticancer Drug Screen. Data for tumor model P388 Leukemia (intraperitoneal) in B6D2F1 (BDF1) mice
Settings: endpoint: median survival time, higher = longer survival
Method: The antitumor activity of compounds was measured in mice bearing transplantable tumors. Survival or tumor size were measured and the results are expressed as the measurement made in the treated group (T) divided by the measurement made in the vehicle treated control group (C). The tumor model used in this assay is P388 Leukemia (intraperitoneal) in B6D2F1 (BDF1) mice

[1] = dose: 12.5 mg/kg/injection, schedule: Q04DX003 (ip), vehicle: saline
[2] = dose: 100.0 mg/kg/injection, schedule: Q04DX003 (ip), vehicle: saline
[3] = dose: 200.0 mg/kg/injection, schedule: Q04DX003 (ip), vehicle: saline
[4] = dose: 400.0 mg/kg/injection, schedule: Q04DX003 (ip), vehicle: saline
[5] = dose: 50.0 mg/kg/injection, schedule: Q01DX009 (ip), vehicle: saline with Tween-80
[6] = dose: 100.0 mg/kg/injection, schedule: Q01DX009 (ip), vehicle: saline with Tween-80
[7] = dose: 200.0 mg/kg/injection, schedule: Q01DX009 (ip), vehicle: saline with Tween-80
[8] = dose: 50.0 mg/kg/injection, schedule: Q01DX009 (ip), vehicle: Klucel (hydroxypropylcellulose) (HPC)
[9] = dose: 200.0 mg/kg/injection, schedule: Q01DX009 (ip), vehicle: Klucel (hydroxypropylcellulose) (HPC)
[10] = dose: 100.0 mg/kg/injection, schedule: Q04DX003 (ip), vehicle: Klucel (hydroxypropylcellulose) (HPC)
[11] = dose: 200.0 mg/kg/injection, schedule: Q04DX003 (ip), vehicle: Klucel (hydroxypropylcellulose) (HPC)
[12] = dose: 400.0 mg/kg/injection, schedule: Q04DX003 (ip), vehicle: Klucel (hydroxypropylcellulose) (HPC)
[13] = dose: 100.0 mg/kg/injection, schedule: Q01DX009 (ip), vehicle: Klucel (hydroxypropylcellulose) (HPC)
[14] = dose: 25.0 mg/kg/injection, schedule: Q01DX009 (ip), vehicle: saline with Tween-80
[15] = dose: 400.0 mg/kg/injection, schedule: Q04DX003 (ip), vehicle: saline with Tween-80
[16] = dose: 100.0 mg/kg/injection, schedule: Q04DX003 (ip), vehicle: saline with Tween-80
[17] = dose: 200.0 mg/kg/injection, schedule: Q04DX003 (ip), vehicle: saline with Tween-80
[18] = dose: 25.0 mg/kg/injection, schedule: Q01DX009 (ip), vehicle: water
[19] = dose: 25.0 mg/kg/injection, schedule: Q04DX003 (ip), vehicle: water
[20] = dose: 50.0 mg/kg/injection, schedule: Q01DX009 (ip), vehicle: water
[21] = dose: 50.0 mg/kg/injection, schedule: Q04DX003 (ip), vehicle: water
[22] = dose: 100.0 mg/kg/injection, schedule: Q04DX003 (ip), vehicle: water
[23] = dose: 200.0 mg/kg/injection, schedule: Q01DX009 (ip), vehicle: water
[24] = dose: 400.0 mg/kg/injection, schedule: Q01DX009 (ip), vehicle: water

For `COc1ccc(-c2c(C)c(C)nc(Cl)c2C#N)c(OCc2ccccc2)c1OC`, the T/C (dose: 0.1 mg/kg/injection, schedule: Q01DX009 (ip), vehicle: Klucel (hydroxypropylcellulose) (HPC)) was 95 % of control.

In the case of `COc1ccc2c3c1OC1C(Oc4nnnn4-c4ccccc4)C=CC4C(C2)N(C)CCC341` (stereo not drawn), the T/C [1] is reported as 105 % of control, the T/C (dose: 25.0 mg/kg/injection, schedule: Q04DX003 (ip), vehicle: saline) is reported as 113 % of control and the T/C (dose: 50.0 mg/kg/injection, schedule: Q04DX003 (ip), vehicle: saline) is reported as 99 % of control. For the same compound, the T/C [2] was 103 % of control, the T/C [3] was 103 % of control and the T/C [4] was 99 % of control.

`CCSC(CC(C)=O)c1ccc(Cl)c(Cl)c1` (stereo not drawn) was tested, and the T/C [5] was 104 % of control, the T/C [6] was 107 % of control and the T/C [7] was 118 % of control.

For `CCc1ccccc1NC(=O)c1ccccc1Cl`, the T/C (dose: 100.0 mg/kg/injection, schedule: Q04DX003 (ip), vehicle: other) was 109 % of control, the T/C (dose: 200.0 mg/kg/injection, schedule: Q04DX003 (ip), vehicle: other) was 104 % of control and the T/C (dose: 400.0 mg/kg/injection, schedule: Q04DX003 (ip), vehicle: other) was 90 % of control.

In the case of `CCOC(=O)C(C(=O)OCC)C(=O)c1cc(-c2ccc(Cl)c(Cl)c2)nc2c(Cl)cc(Cl)cc12`, the T/C [8] is reported as 100 % of control and the T/C [9] is reported as 91 % of control.

For `CCCCCCCCOP(=O)(N1CC1C)N1CC1C` (stereo not drawn), the T/C [2] was 154 % of control.

For `CC(C)(C)OC(=O)C(CC(=O)O)=C(c1ccccc1)c1ccccc1`, the T/C [10] was 95 % of control, the T/C [11] was 108 % of control and the T/C [12] was 95 % of control.

`CCO/C=C1\SC(=S)N(c2ccccc2OC)C1=O` was tested, and the T/C (dose: 25.0 mg/kg/injection, schedule: Q01DX009 (ip), vehicle: Klucel (hydroxypropylcellulose) (HPC)) was 100 % of control, the T/C [8] was 112 % of control and the T/C (dose: 88.0 mg/kg/injection, schedule: Q01DX009 (ip), vehicle: Klucel (hydroxypropylcellulose) (HPC)) was 103 % of control. The T/C (dose: 88.0 mg/kg/injection, schedule: Q01DX009 (ip), vehicle: saline with Tween-80) was 122 % of control, the T/C [13] was 94 % of control and the T/C (dose: 132.0 mg/kg/injection, schedule: Q01DX009 (ip), vehicle: Klucel (hydroxypropylcellulose) (HPC)) was 103 % of control. For the same compound, the T/C [9] was 94 % of control and 123 % of control and the T/C (dose: 300.0 mg/kg/injection, schedule: Q01DX009 (ip), vehicle: Klucel (hydroxypropylcellulose) (HPC)) was 112 % of control.

In the case of `Cc1ncc([N+](=O)[O-])n1CCSC(Cl)(Cl)Cl`, the T/C [3] is reported as 101 % of control and the T/C [4] is reported as 111 % of control.

`CN(C)c1ccc(/C=C2\C=Cc3ccccc32)cc1` was tested, and the T/C (dose: 3.12 mg/kg/injection, schedule: Q04DX003 (ip), vehicle: saline with Tween-80) was 90 % of control, the T/C (dose: 6.25 mg/kg/injection, schedule: Q04DX003 (ip), vehicle: saline with Tween-80) was 90 % of control and the T/C (dose: 12.5 mg/kg/injection, schedule: Q04DX003 (ip), vehicle: saline with Tween-80) was 92 % of control and 100 % of control. The T/C [14] was 100 % of control, the T/C [5] was 103 % of control and the T/C [6] was 96 % of control and 100 % of control. For the same compound, the T/C [7] was 90 % of control and the T/C [15] was 96 % of control.

In the case of `O=C(NNc1ccc([N+](=O)[O-])cc1)c1ccccc1`, the T/C [8] is reported as 100 % of control, the T/C [13] is reported as 90 % of control and the T/C [10] is reported as 115 % of control. For the same compound, the T/C [9] was 100 % of control, the T/C [11] was 100 % of control and the T/C [12] was 95 % of control.

With `CC(C)n1cnc2c(Cl)ncnc21` the T/C [6] was 100 % of control, the T/C [16] was 104 % of control and the T/C [17] was 95 % of control. For the same compound, the T/C [15] was 90 % of control.

In the case of `N#CN=C([S-])[S-].N#CN=C([S-])[S-].[Cu]`, the T/C (dose: 0.39 mg/kg/injection, schedule: Q01DX001 (ip), vehicle: saline) is reported as 104 % of control, the T/C (dose: 0.78 mg/kg/injection, schedule: Q01DX001 (ip), vehicle: saline) is reported as 100 % of control and the T/C (dose: 1.56 mg/kg/injection, schedule: Q01DX001 (ip), vehicle: saline) is reported as 100 % of control. For the same compound, the T/C (dose: 6.25 mg/kg/injection, schedule: Q01DX009 (ip), vehicle: saline) was 100 % of control, the T/C (dose: 6.25 mg/kg/injection, schedule: Q04DX003 (ip), vehicle: saline) was 86 % of control and the T/C [1] was 100 % of control.

In the case of `C/C(=C\c1ccc(C)cc1)[N+](=O)[O-]`, the T/C (dose: 17.5 mg/kg/injection, schedule: Q01DX010 (ip), vehicle: saline) is reported as 95 % of control, the T/C (dose: 35.0 mg/kg/injection, schedule: Q01DX010 (ip), vehicle: saline) is reported as 86 % of control and the T/C (dose: 70.0 mg/kg/injection, schedule: Q01DX010 (ip), vehicle: saline) is reported as 90 % of control.

`S=C1SCCS1` was tested, and the T/C [14] was 100 % of control, the T/C [5] was 95 % of control and the T/C [6] was 104 % of control. For the same compound, the T/C [2] was 91 % of control.

In the case of `O=C1CCCCCCCCCCC1Cc1cc(O)c(CC2CCCCCCCCCCC2=O)cc1O` (stereo not drawn), the T/C [5] is reported as 96 % of control, the T/C [6] is reported as 94 % of control and the T/C [7] is reported as 100 % of control.

For `COC1(c2ccc(Br)cc2)OC1(C)C` (stereo not drawn), the T/C (dose: 6.25 mg/kg/injection, schedule: Q04DX003 (ip), vehicle: water) was 101 % of control, the T/C (dose: 12.5 mg/kg/injection, schedule: Q04DX003 (ip), vehicle: water) was 94 % of control and the T/C [18] was 110 % of control. The T/C [19] was 101 % of control, the T/C [20] was 112 % of control and the T/C [21] was 97 % of control. The T/C (dose: 100.0 mg/kg/injection, schedule: Q01DX009 (ip), vehicle: water) was 100 % of control, the T/C [22] was 86 % of control and the T/C [23] was 110 % of control. The T/C [24] was 124 % of control.

In the case of `CCC1(Br)OC1=O` (stereo not drawn), the T/C (dose: 150.0 mg/kg/injection, schedule: Q01DX009 (ip), vehicle: saline) is reported as 115 % of control and the T/C (dose: 335.0 mg/kg/injection, schedule: Q01DX009 (ip), vehicle: saline) is reported as 115 % of control.

With `CSC1C(=O)Nc2cccc(C#N)c21` (stereo not drawn) the T/C (dose: 50.0 mg/kg/injection, schedule: Q04DX002 (ip), vehicle: saline with Tween-80) was 102 % of control, the T/C (dose: 100.0 mg/kg/injection, schedule: Q04DX002 (ip), vehicle: saline with Tween-80) was 98 % of control and the T/C (dose: 200.0 mg/kg/injection, schedule: Q04DX002 (ip), vehicle: saline with Tween-80) was 102 % of control.

With `c1ccc(C(=NCCN=C(c2ccccc2)c2ccccc2)c2ccccc2)cc1` the T/C [6] was 87 % of control, the T/C [16] was 100 % of control and the T/C [7] was 104 % of control. The T/C [17] was 91 % of control, the T/C (dose: 400.0 mg/kg/injection, schedule: Q01DX009 (ip), vehicle: saline with Tween-80) was 112 % of control and the T/C [15] was 95 % of control.

With `CCOC(=O)C1(C)CCCCC1=O` (stereo not drawn) the T/C [16] was 95 % of control, the T/C [17] was 104 % of control and the T/C [15] was 100 % of control.

With `Clc1ccc(-c2cc(=[N+]3CCC4(CC3)SSC3(CC[N+](=c5cc(-c6ccc(Cl)cc6)ss5)CC3)S4)ss2)cc1` (stereo not drawn) the T/C [18] was 110 % of control, the T/C [19] was 94 % of control and the T/C [20] was 121 % of control. For the same compound, the T/C [21] was 101 % of control, the T/C [22] was 92 % of control and the T/C [23] was 121 % of control. For the same compound, the T/C (dose: 200.0 mg/kg/injection, schedule: Q04DX003 (ip), vehicle: water) was 97 % of control, the T/C [24] was 121 % of control and the T/C (dose: 400.0 mg/kg/injection, schedule: Q04DX003 (ip), vehicle: water) was 98 % of control.

With `CCCCN(CCCC)CC(C)O` (stereo not drawn) the T/C (dose: 25.0 mg/kg/injection, schedule: Q04DX003 (ip), vehicle: saline with Tween-80) was 100 % of control, the T/C (dose: 50.0 mg/kg/injection, schedule: Q04DX003 (ip), vehicle: saline with Tween-80) was 104 % of control and the T/C [16] was 100 % of control.

With `Cc1cc(C)c(B2OB(c3c(C)cc(C)cc3C)O2)c(C)c1` the T/C (dose: 50.0 mg/kg/injection, schedule: Q04DX003 (ip), vehicle: Klucel (hydroxypropylcellulose) (HPC)) was 95 % of control, the T/C [10] was 100 % of control and the T/C [11] was 95 % of control.

`CN1C(=O)C(C2Sc3ccccc3NC2=O)SC1=S` (stereo not drawn) was tested, and the T/C [5] was 102 % of control, the T/C [6] was 104 % of control and the T/C [7] was 99 % of control.

`Nc1nc2c(ccc3ccccc32)s1` was tested, and the T/C [14] was 117 % of control, the T/C [5] was 117 % of control and the T/C [6] was 122 % of control.
